Values joined by “and” are separate entries in the source; they are usually repeats but may differ in a detail not shown here. Identical values can stand only once. Like-named read-outs stand apart in the source and are kept apart here.

One data set concerns the target T1, recombinant QR2 (Homo sapiens, UniProt P16083).
T1 sequence (P16083 1-231): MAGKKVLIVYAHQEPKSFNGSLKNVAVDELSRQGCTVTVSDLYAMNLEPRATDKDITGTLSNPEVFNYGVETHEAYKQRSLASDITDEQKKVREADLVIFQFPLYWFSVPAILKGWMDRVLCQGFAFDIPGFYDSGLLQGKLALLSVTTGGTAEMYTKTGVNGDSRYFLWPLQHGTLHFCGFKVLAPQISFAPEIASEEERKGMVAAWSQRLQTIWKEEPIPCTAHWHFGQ
Briefly: Inhibition of QR2 activity in vitro (absorbance at 365 nm, NmeH/menadione). The class given is biochemical. The protocol:
Inhibition of QR2 activity by the compounds of the invention was assayed in triplicate with recombinant QR2 (at 96 ng/ml) by measuring the absorbance at 365 nm in a buffer containing 50 Mm Tris-HCl, Ph 8.5, 50 μM NmeH, 20 μM menadione, and 0.1% Triton X-100 as described in Graves et al. (2002) Mol. Pharmacol. 62: 1364-72.

Data set [1] concerns Plasmodium chabaudi AS line. Briefly: Four day test for blood schizontocidal activity, P. chabaudi AS in mice. The class given is in vivo. Further details: ED90: unit not given beside the values. The conditions noted are these: for ED50: Plasmodium chabaudi. The protocol:
(§1) MEFA which was developed from NS by the 2% relapse technique (Peters, W., Chemotherapy and Drug Resistance in Malaria, 2nd Ed., London, Academic Press, ISBN 0-12-552721-7).
(§2) Blood schizontocidal activity was assessed by the “four day test” essentially as described by Peters, W. and Robinson, B. L. (1999), “Malaria” in Handbook of Animal Models of Infection, Academic Press. The compound was dissolved in dimethyl sulfoxide with the aid of ultrasonification and aqueous dilutions were prepared for use.
(§3) Random-bred Swiss albino mice free of Mycoplasma (Eperythrozoon) coccoides and weighing between 18 and 22 g. were infected via the tail vein on day 0 (D0) and then treated once daily either subcutaneously or orally by gavage for four consecutive days (D0 through D+3). Thin blood films were made from tail blood from groups of untreated controls and from treated animals on D+4.

The test system of the next data set is P. yoelii ssp. NS. Briefly: Four day test for blood schizontocidal activity, chloroquine-resistant P. yoelii ssp. NS in mice. As to conditions: for ED50: Plasmodium yoelii. The class given is in vivo, Plasmodium yoelii. More on the design: ED90: unit not given beside the values. The protocol: as §1, §2, §3
For the next data set, the system named is P. yoelii ssp. MEFA. Briefly: Four day test for blood schizontocidal activity, mefloquine-resistant P. yoelii ssp. MEFA in mice. The data set is classed as in vivo, Plasmodium yoelii. More on the design: ED90: unit not given beside the values. The conditions noted are these: for ED50: Plasmodium yoelii. The protocol: as §1, §2, §3
Data set [2] is described as follows: Signs of toxicity in mice treated in the four day test. The data set is classed as in vivo.
From the text: as §3

[3] abbreviates: average of the determinations, read-out: IC50 Average.
Setting [4] is: individual determinations, assay range given, read-out: IC50.
[5] abbreviates: P. yoelii ssp. MEFA, sc, once daily D0 to D+3, mice.
Where [6] appears, read: set 1, average, read-out: IC50 Average.
[7] abbreviates: set 2, average, read-out: IC50 Average.
The mark [8] stands for this setting: set 2, individual determinations, read-out: IC50.

As for `COc1cc(NC(C)CCCN)c2ncccc2c1` (stereo not drawn) [primaquine, reference compound], the IC50 (as a rule, the concentration that gives 50% inhibition) was 14.2 µM and 11 µM and 13.2 µM at recombinant QR2 (IC50 (μM), individual determinations, assay range given); 13 µM at recombinant QR2 (IC50 Average, average of the determinations).
On to `Clc1ccc2c(SCc3ccccn3)ccnc2c1` [Compound 2-33], for which the IC50 at recombinant QR2 (setting [3]) is 74 µM; on recombinant QR2 (setting [4]) it was 84 µM and 72.2 µM and 65.9 µM.
As to `O=[N+]([O-])c1ccc(NCCNc2cc(C(F)(F)F)nc3cc(C(F)(F)F)ccc23)nc1` [Compound 5, N-(2-(5-nitropyridin-2-ylamino)ethyl)-2,7-bis(trifluoromethyl)quinolin-4-amine], the IC50 at recombinant QR2 (setting [3]) was 189 µM; at recombinant QR2 (setting [4]), 132 µM and 180 µM and 255 µM.
Turning to `CNc1ccnc2cc(Cl)ccc12` [Compound 2-39], the 50% inhibitory concentration (IC50) is 0.13 µM at recombinant QR2 (setting [3]); 0.13 µM and 0.16 µM and 0.09 µM at recombinant QR2 (setting [4]). The ED50 (usually the midpoint of the dose-response relation) was 150 mg/kg in data set [1] (po); 150 mg/kg in data set [1] (sc); 220 mg/kg in the data set on P. yoelii ssp. NS (po); 400 mg/kg in the data set on P. yoelii ssp. NS (sc); 190 mg/kg in the data set with P. yoelii ssp. MEFA (P. yoelii ssp. MEFA, po, once daily D0 to D+3, mice); 320 mg/kg in the data set on P. yoelii ssp. MEFA (setting [5]). Also, the “activity against the drug-sensitive P. chabaudi AS line” value in data set [1] (parenteral and oral, result in words) was “active both parenterally and orally”. The “inhibitory activity against resistant strain of P. yoelii” value in the data set with P. yoelii ssp. NS (chloroquine-resistant P. yoelii ssp. NS, result in words) was “demonstrated inhibitory activity”; with P. yoelii ssp. MEFA (mefloquine-resistant P. yoelii ssp. MEFA, result in words), “demonstrated inhibitory activity”. In addition, in data set [2] (oral, higher doses), the toxicity result is given as “some toxicity was observed at higher doses”. In addition, in data set [2] (subcutaneous), the “overt signs of toxicity” value is listed as “No overt signs of toxicity”.
`OCCN(CCO)CCCNc1cc(C(F)(F)F)nc2c(C(F)(F)F)cccc12` [Compound 3-4]: the IC50 on recombinant QR2 (setting [3]) is 238 µM; at recombinant QR2 (setting [4]), 229 µM and 164 µM and 320 µM.
Turning to `Clc1ccc2c(NC3=NC4C=CC=CC4N3)ccnc2c1` (stereo not drawn) [Compound 2-29], the IC50 is 3.2 µM at recombinant QR2 (setting [3]); 4.1 µM and 2.2 µM and 3.4 µM on recombinant QR2 (setting [4]).
Take `COc1cc(NCc2ccccn2)c2ncccc2c1` [Compound 4-1]: the IC50 is 0.47 µM on recombinant QR2 (setting [3]); 0.34 µM and 0.24 µM and 0.84 µM at recombinant QR2 (setting [4]).
Take `CC(O)CNCCNc1cc(C(F)(F)F)nc2c(C(F)(F)F)cccc12` (stereo not drawn) [Compound 3-3]: the IC50 at recombinant QR2 (setting [3]) is 98 µM; on recombinant QR2 (setting [4]), 109 µM and 87 µM.
`Clc1ccc2cc(-c3ccccc3)cnc2c1` [Compound 7, 7-chloro-3-phenylquinoline]: the IC50 on recombinant QR2 (setting [3]) was 43.3 µM; at recombinant QR2 (setting [4]) it was 49.5 µM and 40 µM and 40.3 µM.
On to `COc1ccc2c(ccc[n+]2[O-])c1` [Compound 9, 6-methoxyquinoline N-oxide], for which the IC50 at recombinant QR2 (setting [3]) was 4.9 µM; at recombinant QR2 (setting [4]), 4.2 µM and 4.7 µM and 5.8 µM.
On to `Oc1ccc(CCNc2ccnc3cc(Cl)ccc23)cc1` [Compound 2-5], for which the IC50 was 2.7 µM at recombinant QR2 (setting [3]); 2.68 µM and 2.42 µM and 2.86 µM at recombinant QR2 (setting [4]).
Consider `CCN(CC)CCCC(C)Nc1ccnc2cc(Cl)ccc12` (stereo not drawn) [chloroquine, reference compound], for which the IC50 was 1 to 5 µM at recombinant QR2 (read-out: QR2 IC50); 1.13 µM at recombinant QR2 (setting [6]); 4.13 µM on recombinant QR2 (setting [7]); 3.99 µM and 4.15 µM and 4.25 µM at recombinant QR2 (setting [8]). In the data set with P. yoelii ssp. NS (P. yoelii ssp. NS, sc, once daily D0 to D+3, mice), this molecule showed an ED90 of 19.0. Further, in the data set with P. yoelii ssp. NS (sc), the 50% effect level (ED50) was put at a dose of 5 mg/kg.
Regarding `COc1cc(NC2CCN(Cc3ccccc3)CC2)c2ncccc2c1` [Compound 4-2], the IC50 was 4.8 µM on recombinant QR2 (setting [3]); 4.5 µM and 4.7 µM and 5.3 µM at recombinant QR2 (setting [4]).
`Clc1ccc2c(NCc3ccccn3)ccnc2c1` [Compound 2-17]: the IC50 at recombinant QR2 (setting [6]) was 0.6 µM; on recombinant QR2 (set 1, individual determinations, read-out: IC50), 0.41 µM and 0.67 µM and 0.72 µM; on recombinant QR2 (setting [7]), 0.55 µM; on recombinant QR2 (setting [8]), 0.6 µM and 0.5 µM.
As to `CCC(CC)(CCCN)CNc1cc(OC)cc2cccnc12` [Compound 4-9], the IC50 at recombinant QR2 (setting [3]) was 18.5 µM; on recombinant QR2 (setting [4]), 11.6 µM and 27.5 µM and 16.4 µM.
Turning to `Clc1ccc2c(NCCc3ccccn3)ccnc2c1` [Compound 2-4], the IC50 at recombinant QR2 (setting [3]) is 3.8 µM; on recombinant QR2 (setting [4]), 3.3 µM and 4.7 µM.
`CCC(CC)(CCC#N)CNc1cc(OC)cc2cccnc12` [Compound 4-3]: the IC50 at recombinant QR2 (setting [3]) was 10.2 µM; at recombinant QR2 (setting [4]) it was 9.1 µM and 7.8 µM and 13.7 µM.
Regarding `CCN(CC)CCC(C)Nc1cc(OC)cc2cccnc12` (stereo not drawn) [Compound 4-5], the IC50 on recombinant QR2 (setting [3]) was 23 µM; at recombinant QR2 (setting [4]), 18.5 µM and 21.7 µM and 28.8 µM.
Regarding `Clc1ccc2c(OCc3ccccn3)ccnc2c1` [Compound 2-34], the IC50 is 79.6 µM on recombinant QR2 (setting [3]); 81.5 µM and 79 µM and 78.3 µM at recombinant QR2 (setting [4]).
Regarding `CCN1CCC(Nc2cc(OC)cc3cccnc23)CC1` [Compound 4-8], the IC50 on recombinant QR2 (setting [3]) was 1.6 µM; at recombinant QR2 (setting [4]) it was 2.2 µM and 0.89 µM and 1.65 µM.
In the case of `OC(c1cc(C(F)(F)F)nc2c(C(F)(F)F)cccc12)C1CCCCN1` (stereo not drawn) [mefloquine, reference compound], the IC50 at recombinant QR2 (setting [3]) is 33 µM; at recombinant QR2 (setting [4]), 28 µM and 34.8 µM and 36.5 µM. Besides, the ED90 in data set [1] (P. chabaudi AS, sc (subcutaneous injection), once daily D0 to D+3, mice) is listed as 3.0; in the data set with P. yoelii ssp. MEFA (setting [5]) it was 100. The ED50 amounted to 1.5 mg/kg in data set [1] (P. chabaudi AS, sc (subcutaneous injection), once daily D0 to D+3, mice, read-out: ED50) and 20 mg/kg in the data set on P. yoelii ssp. MEFA (setting [5]).

(Values after patent US20060074105A1, “Substituted quinoline and quinazoline inhibitors of quinone reductase 2” (Serenex, Inc., priority 2004, published 2006).)
